Test results reported in ChEMBL document CHEMBL1201862, “PubChem BioAssay data set” (2004).
Values joined by “and” are separate entries in the source; they are usually repeats but may differ in a detail not shown here. Equal values may be shown once. Active and inactive are the calls of the source.

Assays:
Protein Wnt-3a = Protein Wnt-3a (Mus musculus, UniProt P27467); test: Wnt3a-driven reporter signaling inhibition, dose response, selectivity assay for Gli-SUFU antagonist project, Wnt-LIGHT cells, luminescence (AID 651570); format: functional; settings: read-out: IC50_Mean;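 also: Wnt-LIGHT reporter cells stimulated with conditioned medium from Wnt3a-producing cells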
[1] = molecular target: Photoreceptor-specific nuclear receptor (Homo sapiens, UniProt Q9Y5X4); format: functional, cell-based;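 also: CHO-S cells with Gal4-NCOR and VP16-NR2E3 two-hybrid luciferase reporter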
T-cell = test: inhibitors of CD8+ T cell–vesicle binding, dose response, mouse 2C CD8+ T cells, flow cytometry (AID 485284); format: functional
[2] = Shn3 3'UTR reporter inhibitors, dose response, cell-based, Clone20 osteoblasts, firefly luciferase, cherry-picked (AID 624132); format: functional;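 also: firefly luciferase luminescence from reporter carrying the Shn3 3'UTR in osteoblasts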
[3] = molecular target: T1, Short transient receptor potential channel 4 (Mus musculus, UniProt Q9QUQ5); test: mouse TRPC4 channel activators, dose response, cell-based, HEK293 TRPC4/mu-opioid, Fluo-4 calcium (AID 434937); format: functional
T1 sequence (Q9QUQ5 whole entry): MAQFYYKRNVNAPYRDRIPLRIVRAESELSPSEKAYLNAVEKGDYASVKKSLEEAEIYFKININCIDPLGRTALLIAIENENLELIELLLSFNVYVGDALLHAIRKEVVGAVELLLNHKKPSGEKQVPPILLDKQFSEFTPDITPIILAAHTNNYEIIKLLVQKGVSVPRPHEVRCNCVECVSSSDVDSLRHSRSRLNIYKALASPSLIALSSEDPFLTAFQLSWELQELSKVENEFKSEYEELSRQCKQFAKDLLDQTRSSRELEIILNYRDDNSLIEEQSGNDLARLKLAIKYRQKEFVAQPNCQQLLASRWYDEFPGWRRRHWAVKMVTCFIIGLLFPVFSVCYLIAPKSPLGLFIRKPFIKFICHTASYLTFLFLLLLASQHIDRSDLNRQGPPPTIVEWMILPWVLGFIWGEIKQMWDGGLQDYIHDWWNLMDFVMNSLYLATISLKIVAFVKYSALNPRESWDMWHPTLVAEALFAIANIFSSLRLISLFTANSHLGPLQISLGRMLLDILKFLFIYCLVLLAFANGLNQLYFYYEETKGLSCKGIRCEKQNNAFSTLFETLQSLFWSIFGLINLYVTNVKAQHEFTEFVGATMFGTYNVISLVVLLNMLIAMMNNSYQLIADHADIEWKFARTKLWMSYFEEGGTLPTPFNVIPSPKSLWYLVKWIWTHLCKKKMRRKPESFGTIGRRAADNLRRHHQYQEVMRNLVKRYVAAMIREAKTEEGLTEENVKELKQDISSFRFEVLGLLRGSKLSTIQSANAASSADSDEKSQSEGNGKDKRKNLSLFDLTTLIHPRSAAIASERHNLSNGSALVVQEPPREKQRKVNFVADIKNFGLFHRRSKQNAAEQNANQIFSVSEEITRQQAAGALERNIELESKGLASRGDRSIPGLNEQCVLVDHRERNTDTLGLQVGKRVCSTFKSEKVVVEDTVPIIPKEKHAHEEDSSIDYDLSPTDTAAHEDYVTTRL

[4] = control 3'UTR Renilla luciferase suppression, dose response, counter-screen for Shn3 inhibitor project, cell-based, Clone20-Shn3RL, cherry-picked (AID 624133); format: functional
INS1 = test: beta cell apoptosis inhibitors, cytokine rescue, dose response, luminescence, retest (AID 449756); format: functional, cell-based;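 also: cell death triggered by IL-1 beta plus TNF-alpha plus IFN-gamma mixture; protective hits raise ATP signal compared with cytokine alone wells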
[5] = HepG2 cell cytotoxicity, dose response, cytotoxicity control for Shn3 inhibitor project, CellTiter-Glo, cherry-picked (AID 624134); format: functional, cell-based
[6] = molecular target: Dual specificity protein phosphatase 3 (Homo sapiens, UniProt P51452); test: VHR phosphatase inhibition, dose response, selectivity assay for STEP inhibitor project, biochemical (AID 602374); format: functional; settings: read-out: IC50_Mean
[7] = molecular target: Tyrosine-protein phosphatase non-receptor type 11 (Homo sapiens, UniProt Q06124); test: SHP2 phosphatase inhibition, dose response, selectivity assay for STEP inhibitor project, biochemical (AID 602367); format: functional; settings: read-out: IC50_Mean
[8] = molecular target: Tyrosine-protein phosphatase non-receptor type 5 (Homo sapiens, UniProt P54829); test: STEP phosphatase inhibitors, confirmation, biochemical, fluorescence intensity, uHTS hits (AID 602372); format: functional; settings: read-out: IC50_Mean
[9] = molecular target: Hepatocyte nuclear factor 4-alpha (Homo sapiens, UniProt P41235); format: functional, cell-based;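 also: biochemical luminescence-based dose-response counterscreen measuring inhibition of HNF4 dimerization, run alongside a screen for blockers of ABHD5–perilipin-5 interaction; split luciferase complementation of HNF4 fusion proteins in cell lysate measuring dimerization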
Melanocortin receptor 4 = Melanocortin receptor 4 (Homo sapiens, UniProt P32245); format: functional, cell-based;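 also: Cell-based assay with luminescence read-out, confirmatory dose-response testing for agonist activity of biased ligands at MC4R; human U2OS cells with tagged receptor and beta-arrestin; potency of agonists that increase receptor coupling to beta-arrestin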
[10] = molecular target: T2, Apoptotic protease-activating factor 1 (Homo sapiens, UniProt O14727); format: functional
T2 sequence (O14727 whole entry): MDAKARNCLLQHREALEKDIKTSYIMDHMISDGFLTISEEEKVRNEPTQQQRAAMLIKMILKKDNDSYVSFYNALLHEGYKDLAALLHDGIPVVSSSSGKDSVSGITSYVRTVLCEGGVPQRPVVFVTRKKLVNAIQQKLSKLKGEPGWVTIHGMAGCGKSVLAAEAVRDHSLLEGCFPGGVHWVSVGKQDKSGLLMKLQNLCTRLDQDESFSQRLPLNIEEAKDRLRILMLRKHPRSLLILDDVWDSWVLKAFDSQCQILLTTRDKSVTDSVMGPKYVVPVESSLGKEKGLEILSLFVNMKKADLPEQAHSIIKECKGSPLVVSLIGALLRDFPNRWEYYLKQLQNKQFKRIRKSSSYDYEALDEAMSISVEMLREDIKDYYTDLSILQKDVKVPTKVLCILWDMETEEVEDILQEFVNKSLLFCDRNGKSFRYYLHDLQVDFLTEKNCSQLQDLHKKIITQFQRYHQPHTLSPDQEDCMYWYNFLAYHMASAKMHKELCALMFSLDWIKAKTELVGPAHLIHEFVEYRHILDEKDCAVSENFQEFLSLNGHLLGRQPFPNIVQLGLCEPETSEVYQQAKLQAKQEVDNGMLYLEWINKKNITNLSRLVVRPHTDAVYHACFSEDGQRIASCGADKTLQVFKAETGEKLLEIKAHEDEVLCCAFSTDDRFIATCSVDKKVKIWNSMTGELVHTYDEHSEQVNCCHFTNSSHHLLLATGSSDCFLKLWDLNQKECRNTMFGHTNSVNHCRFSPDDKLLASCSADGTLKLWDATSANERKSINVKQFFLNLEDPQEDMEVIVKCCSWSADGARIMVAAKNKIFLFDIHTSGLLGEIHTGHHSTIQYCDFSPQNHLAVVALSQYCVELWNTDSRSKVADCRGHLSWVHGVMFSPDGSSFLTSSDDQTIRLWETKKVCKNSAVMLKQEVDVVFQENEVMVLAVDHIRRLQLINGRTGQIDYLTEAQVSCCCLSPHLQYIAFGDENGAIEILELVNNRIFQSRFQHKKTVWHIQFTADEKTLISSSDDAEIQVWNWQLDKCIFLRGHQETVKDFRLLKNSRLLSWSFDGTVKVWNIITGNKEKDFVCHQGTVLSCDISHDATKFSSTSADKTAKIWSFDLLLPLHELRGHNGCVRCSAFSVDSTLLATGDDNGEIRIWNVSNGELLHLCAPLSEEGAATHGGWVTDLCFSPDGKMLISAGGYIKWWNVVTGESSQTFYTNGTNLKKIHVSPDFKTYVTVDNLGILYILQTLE

[11] = molecular target: T3, Ubiquitin-conjugating enzyme E2 N (Homo sapiens, UniProt P61088); format: functional
T3 sequence (P61088 whole entry): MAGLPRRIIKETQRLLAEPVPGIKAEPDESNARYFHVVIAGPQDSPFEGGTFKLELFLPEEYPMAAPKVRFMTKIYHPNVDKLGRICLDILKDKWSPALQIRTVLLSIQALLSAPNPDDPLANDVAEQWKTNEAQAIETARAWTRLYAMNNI

Vero = test: cells; format: functional; settings: Chlorocebus sabaeus
[12] = molecular target: T3, Ubiquitin-conjugating enzyme E2 N; format: functional; remark: listed apart in the source
[13] = molecular target: T4, Replicative DNA helicase DnaB (Mycobacterium tuberculosis, UniProt P9WMR3); test: DnaB intein splicing inhibitors, dose response, biochemical, cell-free fluorescence (AID 449749); format: functional
T4 sequence (P9WMR3 whole entry): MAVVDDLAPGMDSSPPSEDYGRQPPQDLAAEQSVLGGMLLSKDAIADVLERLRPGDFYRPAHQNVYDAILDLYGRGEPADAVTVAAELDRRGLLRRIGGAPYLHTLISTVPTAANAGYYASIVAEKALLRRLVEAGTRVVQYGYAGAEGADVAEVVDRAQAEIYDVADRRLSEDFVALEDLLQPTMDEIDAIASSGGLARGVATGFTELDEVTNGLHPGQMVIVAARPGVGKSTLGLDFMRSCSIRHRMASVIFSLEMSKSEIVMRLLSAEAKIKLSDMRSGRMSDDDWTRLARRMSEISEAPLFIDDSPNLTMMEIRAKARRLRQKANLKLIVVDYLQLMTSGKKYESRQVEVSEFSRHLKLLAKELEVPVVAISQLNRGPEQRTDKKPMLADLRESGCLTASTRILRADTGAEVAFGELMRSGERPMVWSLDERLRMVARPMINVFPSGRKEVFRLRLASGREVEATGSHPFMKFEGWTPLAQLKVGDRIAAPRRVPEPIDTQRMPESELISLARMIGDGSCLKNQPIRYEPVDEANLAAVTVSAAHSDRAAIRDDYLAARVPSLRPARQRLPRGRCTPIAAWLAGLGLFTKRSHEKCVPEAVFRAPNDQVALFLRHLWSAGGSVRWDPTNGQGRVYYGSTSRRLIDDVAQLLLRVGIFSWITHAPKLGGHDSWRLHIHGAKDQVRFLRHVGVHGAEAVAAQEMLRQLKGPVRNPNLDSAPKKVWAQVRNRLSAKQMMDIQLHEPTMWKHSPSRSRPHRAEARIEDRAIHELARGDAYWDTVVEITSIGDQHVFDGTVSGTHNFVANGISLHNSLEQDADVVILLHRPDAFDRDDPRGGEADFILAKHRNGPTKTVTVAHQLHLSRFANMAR

Bcl-2-related protein A1 = molecular target: T5, Bcl-2-related protein A1 (Mus musculus, UniProt Q07440); format: functional;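 also: confirmatory dose–response counterscreen on Bfl-1, used to check hits from a UBC13 polyubiquitin inhibitor campaign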
T5 sequence (Q07440 whole entry): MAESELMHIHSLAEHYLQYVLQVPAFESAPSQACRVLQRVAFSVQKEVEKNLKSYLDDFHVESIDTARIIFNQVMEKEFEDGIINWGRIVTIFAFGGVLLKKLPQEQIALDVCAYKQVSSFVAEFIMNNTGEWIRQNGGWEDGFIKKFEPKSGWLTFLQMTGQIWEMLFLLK

[14] = molecular target: Heat shock protein HSP 90-alpha (Homo sapiens, UniProt P07900); format: functional, organism-based
Protein RecA = molecular target: T6, Protein RecA (Mycobacterium tuberculosis, UniProt P9WHJ3); test: Fluorescence Cell-Free Homogeneous Dose Retest to Identify Inhibitors of RecA-Intein Splicing Activity. [Related pubchem assays (depositor defined):AID2097, AID2223, AID489010, AID492950]; format: functional
T6 sequence (P9WHJ3 whole entry): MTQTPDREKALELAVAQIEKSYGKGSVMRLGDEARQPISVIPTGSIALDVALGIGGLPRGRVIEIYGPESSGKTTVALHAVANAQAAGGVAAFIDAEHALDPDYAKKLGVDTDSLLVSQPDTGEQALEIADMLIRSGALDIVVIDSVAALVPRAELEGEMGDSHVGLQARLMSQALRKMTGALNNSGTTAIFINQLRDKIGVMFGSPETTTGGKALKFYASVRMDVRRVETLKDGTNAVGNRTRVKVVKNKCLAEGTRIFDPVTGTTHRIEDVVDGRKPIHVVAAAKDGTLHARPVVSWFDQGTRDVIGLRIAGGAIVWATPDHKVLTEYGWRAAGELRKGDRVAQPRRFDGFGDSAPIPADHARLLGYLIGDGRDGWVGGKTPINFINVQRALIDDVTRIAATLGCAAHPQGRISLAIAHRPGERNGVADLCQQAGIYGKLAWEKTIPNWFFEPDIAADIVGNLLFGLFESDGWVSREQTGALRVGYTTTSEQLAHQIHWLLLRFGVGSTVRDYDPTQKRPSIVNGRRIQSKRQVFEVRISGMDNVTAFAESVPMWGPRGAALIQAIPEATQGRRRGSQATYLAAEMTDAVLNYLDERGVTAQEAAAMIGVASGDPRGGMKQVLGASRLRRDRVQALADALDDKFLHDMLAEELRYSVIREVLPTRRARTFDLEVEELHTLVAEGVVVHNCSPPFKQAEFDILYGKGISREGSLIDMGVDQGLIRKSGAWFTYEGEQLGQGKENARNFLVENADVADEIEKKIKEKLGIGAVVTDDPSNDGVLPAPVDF

[15] = molecular target: Neurotensin receptor type 1 (Homo sapiens, UniProt P30989); format: functional;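 also: Image-based confirmatory dose-response assay measuring agonist activity at NTR1; NTR1-expressing U2OS osteosarcoma cells imaged for beta-arrestin GFP spot formation; agonist potency where compounds increase beta-arrestin recruitment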
Sequence of Neurotensin receptor type 1 (P30989 whole entry): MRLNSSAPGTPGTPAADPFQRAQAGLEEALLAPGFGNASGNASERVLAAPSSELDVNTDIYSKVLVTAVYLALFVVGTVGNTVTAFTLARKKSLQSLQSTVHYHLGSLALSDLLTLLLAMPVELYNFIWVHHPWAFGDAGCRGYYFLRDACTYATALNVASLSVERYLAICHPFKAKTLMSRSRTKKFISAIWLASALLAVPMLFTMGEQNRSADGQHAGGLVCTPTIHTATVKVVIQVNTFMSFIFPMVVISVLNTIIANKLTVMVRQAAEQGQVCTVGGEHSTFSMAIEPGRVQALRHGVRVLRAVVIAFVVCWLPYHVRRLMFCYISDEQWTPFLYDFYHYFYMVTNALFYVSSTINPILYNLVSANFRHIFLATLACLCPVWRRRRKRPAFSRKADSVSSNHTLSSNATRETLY

Sequence of Protein Wnt-3a (P27467 whole entry, the tested form may be a part): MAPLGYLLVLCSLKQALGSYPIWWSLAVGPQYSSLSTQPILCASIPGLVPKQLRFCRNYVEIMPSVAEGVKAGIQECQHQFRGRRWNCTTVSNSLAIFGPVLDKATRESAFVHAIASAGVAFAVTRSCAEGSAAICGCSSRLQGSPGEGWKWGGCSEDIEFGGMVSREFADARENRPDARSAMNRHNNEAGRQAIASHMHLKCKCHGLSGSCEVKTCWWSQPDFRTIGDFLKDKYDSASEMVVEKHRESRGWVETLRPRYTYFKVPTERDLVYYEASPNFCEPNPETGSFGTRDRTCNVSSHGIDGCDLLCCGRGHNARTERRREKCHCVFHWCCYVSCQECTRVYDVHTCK
Sequence of Hepatocyte nuclear factor 4-alpha (P41235 whole entry, the tested form may be a part): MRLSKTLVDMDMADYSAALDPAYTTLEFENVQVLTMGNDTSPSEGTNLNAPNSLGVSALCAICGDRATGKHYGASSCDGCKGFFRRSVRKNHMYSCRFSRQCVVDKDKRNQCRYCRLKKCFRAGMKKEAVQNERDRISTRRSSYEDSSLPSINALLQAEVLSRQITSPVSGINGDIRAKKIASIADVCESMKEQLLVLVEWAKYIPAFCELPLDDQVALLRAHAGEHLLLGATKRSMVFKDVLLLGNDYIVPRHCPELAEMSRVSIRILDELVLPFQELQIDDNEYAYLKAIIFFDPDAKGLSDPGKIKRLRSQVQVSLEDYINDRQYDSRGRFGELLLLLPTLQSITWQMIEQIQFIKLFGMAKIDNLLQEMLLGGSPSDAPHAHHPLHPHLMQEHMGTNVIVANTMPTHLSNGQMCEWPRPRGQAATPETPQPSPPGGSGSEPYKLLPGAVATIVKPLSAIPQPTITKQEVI
Sequence of Photoreceptor-specific nuclear receptor (Q9Y5X4 whole entry, the tested form may be a part): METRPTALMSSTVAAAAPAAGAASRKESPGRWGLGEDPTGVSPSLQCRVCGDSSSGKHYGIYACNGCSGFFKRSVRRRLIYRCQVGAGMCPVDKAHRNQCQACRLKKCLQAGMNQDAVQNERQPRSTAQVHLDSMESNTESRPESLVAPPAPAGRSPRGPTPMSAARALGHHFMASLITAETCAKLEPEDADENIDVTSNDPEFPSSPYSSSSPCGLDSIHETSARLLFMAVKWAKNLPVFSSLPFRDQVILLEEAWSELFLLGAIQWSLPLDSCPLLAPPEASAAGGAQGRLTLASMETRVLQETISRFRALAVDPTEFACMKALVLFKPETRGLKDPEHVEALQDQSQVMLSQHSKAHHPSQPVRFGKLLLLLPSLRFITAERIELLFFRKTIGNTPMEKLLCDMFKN
Sequence of Dual specificity protein phosphatase 3 (P51452 whole entry): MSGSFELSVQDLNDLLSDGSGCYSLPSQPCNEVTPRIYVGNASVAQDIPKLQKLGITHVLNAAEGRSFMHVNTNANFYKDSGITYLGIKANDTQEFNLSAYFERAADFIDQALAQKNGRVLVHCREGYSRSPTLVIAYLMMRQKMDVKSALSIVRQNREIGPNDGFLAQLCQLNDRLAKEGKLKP
Sequence of Tyrosine-protein phosphatase non-receptor type 5 (P54829 whole entry, the tested form may be a part): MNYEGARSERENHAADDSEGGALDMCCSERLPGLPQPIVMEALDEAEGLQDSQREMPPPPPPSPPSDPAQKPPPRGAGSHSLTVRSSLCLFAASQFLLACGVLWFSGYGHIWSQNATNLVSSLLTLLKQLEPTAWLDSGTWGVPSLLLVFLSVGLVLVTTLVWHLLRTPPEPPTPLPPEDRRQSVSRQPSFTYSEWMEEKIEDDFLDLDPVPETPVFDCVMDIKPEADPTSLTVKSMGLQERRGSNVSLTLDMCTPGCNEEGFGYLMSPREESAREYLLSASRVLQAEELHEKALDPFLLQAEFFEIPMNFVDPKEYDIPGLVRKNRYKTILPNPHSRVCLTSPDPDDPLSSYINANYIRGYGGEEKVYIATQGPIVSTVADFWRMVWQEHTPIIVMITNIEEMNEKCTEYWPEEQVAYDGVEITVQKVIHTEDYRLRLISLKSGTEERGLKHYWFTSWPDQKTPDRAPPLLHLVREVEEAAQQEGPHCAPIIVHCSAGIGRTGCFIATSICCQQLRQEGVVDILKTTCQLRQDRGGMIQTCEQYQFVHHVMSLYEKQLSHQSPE
Sequence of Tyrosine-protein phosphatase non-receptor type 11 (Q06124 whole entry): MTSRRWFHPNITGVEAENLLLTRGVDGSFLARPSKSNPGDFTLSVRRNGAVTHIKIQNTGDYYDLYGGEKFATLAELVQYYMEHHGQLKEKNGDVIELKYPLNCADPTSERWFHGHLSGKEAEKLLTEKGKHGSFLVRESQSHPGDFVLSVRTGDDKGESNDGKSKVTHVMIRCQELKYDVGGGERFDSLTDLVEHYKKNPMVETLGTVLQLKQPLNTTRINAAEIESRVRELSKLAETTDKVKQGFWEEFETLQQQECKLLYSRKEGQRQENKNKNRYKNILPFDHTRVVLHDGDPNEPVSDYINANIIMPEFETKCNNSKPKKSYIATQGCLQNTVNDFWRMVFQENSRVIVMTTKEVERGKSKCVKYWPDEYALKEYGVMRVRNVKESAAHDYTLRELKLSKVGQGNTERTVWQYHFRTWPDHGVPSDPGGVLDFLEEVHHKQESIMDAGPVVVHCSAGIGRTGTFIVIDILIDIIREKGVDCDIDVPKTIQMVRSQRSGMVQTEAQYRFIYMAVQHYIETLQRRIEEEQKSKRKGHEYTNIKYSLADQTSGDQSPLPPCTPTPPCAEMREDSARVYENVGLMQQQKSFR
Sequence of Melanocortin receptor 4 (P32245 whole entry): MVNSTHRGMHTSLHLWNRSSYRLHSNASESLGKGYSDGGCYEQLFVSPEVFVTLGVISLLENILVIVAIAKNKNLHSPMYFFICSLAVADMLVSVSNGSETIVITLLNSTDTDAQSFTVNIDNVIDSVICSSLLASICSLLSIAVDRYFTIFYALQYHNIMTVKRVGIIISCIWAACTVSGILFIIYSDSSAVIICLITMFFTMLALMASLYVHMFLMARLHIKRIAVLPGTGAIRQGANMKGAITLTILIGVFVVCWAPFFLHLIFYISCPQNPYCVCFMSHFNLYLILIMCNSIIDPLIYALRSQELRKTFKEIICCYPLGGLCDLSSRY

Cc1ccc(OCCOC(=O)c2cc(S(=O)(=O)N3CCCCC3)ccc2N2CCOCC2)cc1
inactive: IC50 [1] 12.6 µM
active: IC50 (Protein Wnt-3a) 4.83 µM | EC50 (T-cell) 11.8 µM

Cc1sc2ncnc(NCC(C)(C)N3CCOCC3)c2c1C
active: AC50 [2] 1.36 µM | IC50 (Protein Wnt-3a) 0.942 µM | EC50 [3] 0.841 µM | AC50 [4] 3 µM | AC50 (INS1; Rattus norvegicus, INS1) 2.96 µM | AC50 [5] 4.09 µM

S=C(c1ccc(Br)cc1)N1CCN(Cc2ccccc2)CC1
inactive: IC50 [8] 22.7 µM
active: IC50 [6] 0.719 µM | IC50 [7] 1.81 µM

O=C(NC1CCCCC1)C(c1cc2ccccc2o1)n1c(=O)c(-c2ccco2)nc2ccccc21 (configuration not stated)
active: IC50 [9] 2.19 µM

CCCCCCCCCCOC(=O)Cn1c(COc2ccc(OC)cc2)[n+](C)c2ccccc21
active: AC50 [2] 2.01 µM | IC50 [10] 10.7 µM and 13.4 µM | IC50 [11] 12.5 µM | CC50 (Vero) > 25 µM | IC50 [12] 11 µM | AC50 [4] 3.44 µM | AC50 [13] 3.97 µM and 4.05 µM | AC50 (INS1; Rattus norvegicus, INS1) 3.65 µM | AC50 (INS1; ins1) 3.47 µM | IC50 (Bcl-2-related protein A1) 19.1 µM | AC50 [14] 38.2 µM | EC50 (Protein RecA) 10.6 µM and 11.1 µM | EC50 [15] 15.8 µM
inactive: EC50 (Melanocortin receptor 4) > 89.2 µM
